{
  "source": "patent US20230330196A1",
  "about": "“IMMUNOSUPPRESSIVE AGENTS” (The Trustees of Columbia University in the City of New York, priority 2020, published 2023)",
  "system": "allo-reactive T cells",
  "assay": "Mixed lymphocyte reaction, B6 SPCs cocultured with irradiated BALB/c SPCs with WT or E223A mutant MMP13",
  "assay_type": "cell-based, mouse",
  "conditions": "5 days coculture",
  "method": "Flow cytometric analysis: Single-cell suspensions were filtered through nylon mesh and stained with the following antibodies: CD3, CD4, CD8, CD25, IFN-g, PD-L1, CD11c, B220, CD11b, F4/80, and then analyzed by FCM using Fortessa.\nSPCs from B6 mice were seeded at 5×10e5/well, cocultured with irradiated BALB/c SPCs (5×10e5/well) in the presence of recombinant human MMP13 (WT-MMP13) or mutant MMP13 (E223A, muMMP13) proteins for 5 days.",
  "data": [
    {"substance": "mu-MMP13: catalytically-inactive E223A point mutant of MMP-13", "values": [
      {"measurement": "CFSElo CD25+ of CD4+ T cells", "setting": "decreased from 21.1% without MMP13", "value": 3.2, "unit": "%"},
      {"measurement": "CFSElo CD25+ of CD8+ T cells", "setting": "down from 41.5% without MMP13", "value": 2.5, "unit": "%"}
    ]}
  ]
}
